# Laboratory results as given in patent publication US12077503B2, “Substituted cyclic amides and their use as herbicides” (FMC CORPORATION, priority 2015, dated 2024).
# Read-outs that look alike come from different tables or passages of the source.
# Columns and labels:
# Test in all cases: Test A preemergence
# Format in all cases: in vivo
# [1] = test system: ryegrass, Italian (Italian ryegrass, Lolium multiflorum); settings: Lolium multiflorum, pre-emergence, 240 h; for pest or weed control at 500 g/ha: 500 g ai/ha; for pest or weed control at 125 g/ha: 125 g ai/ha
# Procedure, shortened: (§1)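 Seeds sprayed preemergence with a directed soil spray, or plants at 2 to 10 cm height and one- to two-leaf stage sprayed postemergence, with test chemicals in a non-phytotoxic solvent mixture containing surfactant, in loam soil–sand blend. Injury rated visually against untreated controls after about 10 d in greenhouse, 0 (no effect) to 100 (complete control).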
# [2] = test system: Kochia (Kochia scoparia); settings: Bassia scoparia, pre-emergence, 240 h; for pest or weed control at 500 g/ha: 500 g ai/ha; for pest or weed control at 125 g/ha: 125 g ai/ha
# Procedure, shortened: as §1
# [3] = test system: giant foxtail (Setaria faberii); settings: Setaria faberi, pre-emergence, 240 h; for pest or weed control at 500 g/ha: 500 g ai/ha; for pest or weed control at 125 g/ha: 125 g ai/ha
# Procedure, shortened: as §1
# [4] = test system: barnyardgrass (Echinochloa crus-galli); settings: Echinochloa crus-galli, pre-emergence, 240 h; for pest or weed control at 500 g/ha: 500 g ai/ha; for pest or weed control at 125 g/ha: 125 g ai/ha
# Procedure, shortened: as §1
# [5] = test system: ragweed (common ragweed, Ambrosia elatior); settings: Ambrosia artemisiifolia, pre-emergence, 240 h; for pest or weed control at 500 g/ha: 500 g ai/ha; for pest or weed control at 125 g/ha: 125 g ai/ha
# Procedure, shortened: as §1
# [6] = test system: pigweed (Amaranthus retroflexus); settings: Amaranthus retroflexus, pre-emergence, 240 h; for pest or weed control at 500 g/ha: 500 g ai/ha; for pest or weed control at 125 g/ha: 125 g ai/ha
# [7] = preemergence, 0 to 100 scale (0 no effect, 100 complete control), read-out: Plant response rating, Foxtail, Giant
# [8] = Preemergence, 0 to 100 scale (0 no effect, 100 complete control), read-out: Plant response rating, Foxtail, Giant
# [9] = preemergence, 0 to 100 scale (0 no effect, 100 complete control), read-out: Plant response rating, Barnyardgrass
# [10] = Preemergence, 0 to 100 scale (0 no effect, 100 complete control), read-out: Plant response rating, Barnyardgrass
# [11] = preemergence, 0 to 100 scale (0 no effect, 100 complete control), read-out: Plant response rating, Pigweed
# [12] = Preemergence, 0 to 100 scale (0 no effect, 100 complete control), read-out: Plant response rating, Pigweed
# [13] = preemergence, visual rating after approx. 10 d, 0 to 100 scale where 0 is no effect and 100 is complete control, read-out: Plant response rating, Ryegrass, Italian
# [14] = preemergence, visual rating after approx. 10 d, 0 to 100 scale where 0 is no effect and 100 is complete control, read-out: Plant response rating, Kochia
# [15] = preemergence, 0 to 100 scale, 0 = no effect, 100 = complete control, read-out: Plant response rating, Kochia
# [16] = preemergence, visual rating after approx. 10 d, 0 to 100 scale where 0 is no effect and 100 is complete control, read-out: Plant response rating, Foxtail, Giant
# [17] = preemergence, 0 to 100 scale, 0 = no effect, 100 = complete control, read-out: Plant response rating, Foxtail, Giant
# [18] = preemergence, visual rating after approx. 10 d, 0 to 100 scale where 0 is no effect and 100 is complete control, read-out: Plant response rating, Barnyardgrass
# [19] = preemergence, 0 to 100 scale, 0 = no effect, 100 = complete control, read-out: Plant response rating, Barnyardgrass
# [20] = preemergence, visual rating after approx. 10 d, 0 to 100 scale where 0 is no effect and 100 is complete control, read-out: Plant response rating, Ragweed
# [21] = preemergence, 0 to 100 scale, 0 = no effect, 100 = complete control, read-out: Plant response rating, Ragweed
# [22] = preemergence, visual rating after approx. 10 d, 0 to 100 scale where 0 is no effect and 100 is complete control, read-out: Plant response rating, Pigweed
# [23] = preemergence, 0 to 100 scale, 0 = no effect, 100 = complete control, read-out: Plant response rating, Pigweed
Structure (SMILES),"pest or weed control at 500 g/ha [3, 7]","pest or weed control at 125 g/ha [3, 8]","pest or weed control at 500 g/ha [4, 9]","pest or weed control at 125 g/ha [4, 10]","pest or weed control at 500 g/ha [6, 11]","pest or weed control at 125 g/ha [6, 12]","pest or weed control at 125 g/ha [1, 13]","pest or weed control at 125 g/ha [2, 14]","pest or weed control at 125 g/ha [3, 16]","pest or weed control at 125 g/ha [4, 18]","pest or weed control at 125 g/ha [5, 20]","pest or weed control at 125 g/ha [6, 22]",further results
CN1C[C@H](c2ccc(C(F)(F)F)cc2)[C@@H](C(=O)Nc2cccc(F)c2C#N)C1=O [Compound 1380],100%,100%,100%,90%,90%,80%,–,–,–,–,–,–,"pest or weed control at 500 g/ha ([1]; preemergence, 0 to 100 scale (0 no effect, 100 complete control), read-out: Plant response rating, Ryegrass, Italian): 50%; pest or weed control at 125 g/ha ([1]; Preemergence, 0 to 100 scale (0 no effect, 100 complete control), read-out: Plant response rating, Ryegrass, Italian): 50%; pest or weed control at 500 g/ha ([2]; preemergence, 0 to 100 scale (0 no effect, 100 complete control), read-out: Plant response rating, Kochia): 90%; pest or weed control at 125 g/ha ([2]; Preemergence, 0 to 100 scale (0 no effect, 100 complete control), read-out: Plant response rating, Kochia): 80%; pest or weed control at 500 g/ha ([5]; preemergence, 0 to 100 scale (0 no effect, 100 complete control), read-out: Plant response rating, Ragweed): 80%; pest or weed control at 125 g/ha ([5]; Preemergence, 0 to 100 scale (0 no effect, 100 complete control), read-out: Plant response rating, Ragweed): 70%"
CCc1cc(CC)cc([C@H]2CN(C)C(=O)[C@@H]2C(=O)Nc2ccccc2F)c1 [Compound 735],–,–,–,–,–,–,80%,20%,90%,90%,0%,0%,"pest or weed control at 500 g/ha ([1]; preemergence, 0 to 100 scale, 0 = no effect, 100 = complete control, read-out: Plant response rating, Ryegrass, Italian): 90%; pest or weed control at 500 g/ha [2, 15]: 80%; pest or weed control at 500 g/ha [3, 17]: 90%; pest or weed control at 500 g/ha [4, 19]: 90%; pest or weed control at 500 g/ha [5, 21]: 0%; pest or weed control at 500 g/ha [6, 23]: 20%"
CN1CC[C@H](c2cccc(OC(F)(F)F)c2)[C@@H](C(=O)Nc2ccc(F)c(F)c2F)C1=O [Compound 808],–,–,–,–,–,–,30%,0%,90%,100%,0%,0%,"pest or weed control at 31 g/ha ([1]; Preemergence, 31 g ai/ha, 0 to 100 scale (0 no effect, 100 complete control), read-out: Plant response rating, Ryegrass, Italian): 0%; pest or weed control at 31 g/ha ([2]; Preemergence, 31 g ai/ha, 0 to 100 scale (0 no effect, 100 complete control), read-out: Plant response rating, Kochia): 0%; pest or weed control at 31 g/ha ([3]; Preemergence, 31 g ai/ha, 0 to 100 scale (0 no effect, 100 complete control), read-out: Plant response rating, Foxtail, Giant): 70%; pest or weed control at 31 g/ha ([4]; Preemergence, 31 g ai/ha, 0 to 100 scale (0 no effect, 100 complete control), read-out: Plant response rating, Barnyardgrass): 100%; pest or weed control at 31 g/ha ([5]; Preemergence, 31 g ai/ha, 0 to 100 scale (0 no effect, 100 complete control), read-out: Plant response rating, Ragweed): 0%; pest or weed control at 31 g/ha ([6]; Preemergence, 31 g ai/ha, 0 to 100 scale (0 no effect, 100 complete control), read-out: Plant response rating, Pigweed): 0%"
Cc1ccc([C@H]2CNC(=S)[C@@H]2C(=O)Nc2cccc(F)c2F)cc1C [Compound 765],–,–,–,–,–,–,0%,0%,30%,100%,0%,0%,"pest or weed control at 500 g/ha [2, 15]: 0%; pest or weed control at 500 g/ha [3, 17]: 80%; pest or weed control at 500 g/ha [4, 19]: 100%; pest or weed control at 500 g/ha [5, 21]: 30%; pest or weed control at 500 g/ha [6, 23]: 0%"
COc1cc([C@H]2CN(C)C(=O)[C@@H]2C(=O)Nc2cccc(F)c2C)ccc1F [Compound 1300],–,–,–,–,–,–,–,–,–,–,–,–,"pest or weed control at 125 g/ha ([1]; preemergence, visual injury rating, 0 to 100 scale where 0 is no effect and 100 is complete control, approximately 10 d, read-out: Ryegrass, Italian plant response rating): 0%; pest or weed control at 500 g/ha ([1]; preemergence, 0 to 100 scale where 0 is no effect and 100 is complete control, read-out: Ryegrass, Italian plant response rating): 60%; pest or weed control at 125 g/ha ([2]; preemergence, visual injury rating, 0 to 100 scale where 0 is no effect and 100 is complete control, approximately 10 d, read-out: Kochia plant response rating): 0%; pest or weed control at 500 g/ha ([2]; preemergence, 0 to 100 scale where 0 is no effect and 100 is complete control, read-out: Kochia plant response rating): 60%; pest or weed control at 125 g/ha ([3]; preemergence, visual injury rating, 0 to 100 scale where 0 is no effect and 100 is complete control, approximately 10 d, read-out: Foxtail, Giant plant response rating): 90%; pest or weed control at 500 g/ha ([3]; preemergence, 0 to 100 scale where 0 is no effect and 100 is complete control, read-out: Foxtail, Giant plant response rating): 90%; pest or weed control at 125 g/ha ([4]; preemergence, visual injury rating, 0 to 100 scale where 0 is no effect and 100 is complete control, approximately 10 d, read-out: Barnyardgrass plant response rating): 90%; pest or weed control at 500 g/ha ([4]; preemergence, 0 to 100 scale where 0 is no effect and 100 is complete control, read-out: Barnyardgrass plant response rating): 90%; pest or weed control at 125 g/ha ([5]; preemergence, visual injury rating, 0 to 100 scale where 0 is no effect and 100 is complete control, approximately 10 d, read-out: Ragweed plant response rating): 0%; pest or weed control at 500 g/ha ([5]; preemergence, 0 to 100 scale where 0 is no effect and 100 is complete control, read-out: Ragweed plant response rating): 80%; pest or weed control at 125 g/ha ([6]; preemergence, visual injury rating, 0 to 100 scale where 0 is no effect and 100 is complete control, approximately 10 d, read-out: Pigweed plant response rating): 0%; pest or weed control at 500 g/ha ([6]; preemergence, 0 to 100 scale where 0 is no effect and 100 is complete control, read-out: Pigweed plant response rating): 40%"
O=C1NCC(c2ccccc2)C1C(=O)Nc1ccccc1Oc1ccccc1 (centres unmarked) [Compound 1357],0%,0%,0%,0%,0%,0%,–,–,–,–,–,–,–
O=C1NCC(c2ccccc2)C1C(=O)Nc1cccnc1 (centres unmarked) [Compound 1356],0%,0%,0%,0%,0%,0%,–,–,–,–,–,–,–
